Test results: US7994307B2, “RNAi modulation of the BCR-ABL fusion gene and uses thereof” (Alnylam Pharmaceuticals, Inc., priority 2004, dated 2011)
Entries after “also recorded” stand apart in the source; their conditions may differ.

How the values were obtained:
32Dp210/e14a2 cells = assay: MTT viability assay in 32Dp210/e14a2 cells after siRNA electroporation; type: cell-based, murine
Procedure: (§1) Survival Assay: Following the last siRNA treatment cells were seeded in 96 well plates and cultivated for another ˜48 hours. Cell survival was then measured by MTT assay as described (Van der Kuip H, et al., Blood. 2001, 98:1532)
(§2) siRNA-transfection: siRNAs were transfected into the murine cell lines 32Dp210Bcr-Abl-e14a2, -e13a2, 32Dp190Bcr-Abl-e1a2 and the human leukemic cell line MEG-01 using electroporation. Cell density was adjusted to 2.5-5×10^6/ml in RPMI/10% FCS. 800 μl of this cell suspension were mixed with siRNA in a 4 mm electroporation cuvette. Cells were electroporated by means of an EasyJect electroporator (peqlab, Erlangen, Germany) using a single-pulse protocol (250 V, 1800 μF, 8.). This treatment was repeated in intervals of 24 hours as indicated.
(§3) In 32Dp210Bcr-Abl-e14a2, -e13a2 and 32Dp190Bcr-Abl-e1a2 inhibition of Bcr-Abl can be compensated by addition of exogenous growth factor to the medium. Therefor, recombinant murine IL-3, (1 ng/ml) was added to the growth medium during siRNA treatment of these cell lines. Following the last siRNA treatment cells were washed and factor deprived before starting the different examination procedures (Western blot/MTT).

K562 cells = assay: Viability/growth of K562 cells after lipofection with siRNA; type: cell-based, human
Procedure: as §1
For the transfection of siRNA molecules into the human K562 cells we used Lipofectamin™ 2000 (Invitrogen, Karlsruhe). 1.5 Mio. cells were plated in 1.5 ml RPMI/10% FCS w/o antibiotics into a 6 well plate. For each well 500 μl transfection solution was prepared, containing 8.4 μg siRNA and 21 μl Lipofectamin in OPTI-MEM I reduced serum medium (Gibco, Karlsruhe). The cells were incubated 5 hours with the transfection solution, then the medium was changed to RPMI/10% FCS complemented with Penicillin/Streptomycin. When treated several times, cells were counted ˜24 h following treatment, diluted to 1 Mio/ml and seeded again in a 6 well plate (1.5 ml cell suspension per well). Transfection was then repeated exactly as the day before.

p210Bcr-Abl (e14a2) = assay: Western blot of Bcr-Abl protein in 32Dp210/e14a2 cells after siRNA electroporation; type: cell-based, murine; conditions: for Bcr-Abl protein levels: 32Dp210/e14a2 cells
Procedure: Protein assay: Western blot analysis was performed ˜24 h following the last siRNA -treatment or ˜96 hours following transfection with the pSUPER siRNA-expression vector as described (Goetz A W, et al., Cancer Res. 2001, 61:7635)
as §2, §3
We used three murine hematopoetic 32D cell lines expressing either p210Bcr-Abl (e14a2), p210Bcr-Abl (e13a2) or p190Bcr-Abl (e1a2) to study the effectiveness of siRNAs to silence each of these human Bcr-Abl fusion breakpoint variants. In addition, experiments were performed in human Ph+leukemia cells (K562, MEG-01). All siRNAs used were directed to breakpoints of the Bcr and Abl sequence of the respective Bcr-Abl mRNA. RNAi-efficiency was assayed via analysis of Bcr-Abl protein levels and by monitoring the biological effect using MTT viability assay.

M07p210/e14a2 cells = assay: Induction of apoptosis by imatinib mesylate in M07p210/e14a2 cells; type: cell-based, human; conditions: BAF7-treated
Bcr-Abl (e14a2) = assay: Western blot of Bcr-Abl protein in primary CD34 positive cells of CML patients (e14a2); type: cell-based, human; conditions: two electroporations, compared to BAF8 or BAF16
Procedure: FIG. 4: CD34 positive cells isolated from 3 newly diagnosed and untreated Philadelphia chromosome-positive CML patients in chronic phase and positive for bcr-abl-e14a2 by Ficoll-Hypaque density gradient centrifugation and affinity column purification were treated with siRNAs BAF7 (e14a2 specific, Patient 1), BAF8 (mismatch control, Patient 1), BAF12 (e14a2 specific, Patient 2+3), and BAF16 (e13a2 specific, Patient 2+3). Cells were diluted to a density of 2.5×10^6 in 800 μl growth medium, mixed with 12.8 μl of a 50 μM solution of the respective siRNA in a 4-mm electroporation cuvette, and electroporated using a single pulse protocol (250V, 1800 μF). This treatment was repeated after 24 hours, the cells were washed, incubated for another 24 hours, and harvested for western blot analysis. […] Additionally, BAF12 treatment compromised Bcr-Abl activity.
CD34 positive cells were isolated from 3 newly diagnosed and untreated Philadelphia chromosome-positive CML patients in chronic phase. Informed consent was obtained by the patients prior to collection of cells. Mononuclear cells were harvested by Ficoll-Hypaque density gradient centrifugation (Seromed, Berlin, Germany). CD34 positive cells were isolated using a stem cell isolation kit and a MACS column (Miltenyi Biotech, Bergisch Gladbach, Germany) according to manufacturer's instructions. […]

p210Bcr-Abl (e14a2), sequence (P11274+P00519 fused): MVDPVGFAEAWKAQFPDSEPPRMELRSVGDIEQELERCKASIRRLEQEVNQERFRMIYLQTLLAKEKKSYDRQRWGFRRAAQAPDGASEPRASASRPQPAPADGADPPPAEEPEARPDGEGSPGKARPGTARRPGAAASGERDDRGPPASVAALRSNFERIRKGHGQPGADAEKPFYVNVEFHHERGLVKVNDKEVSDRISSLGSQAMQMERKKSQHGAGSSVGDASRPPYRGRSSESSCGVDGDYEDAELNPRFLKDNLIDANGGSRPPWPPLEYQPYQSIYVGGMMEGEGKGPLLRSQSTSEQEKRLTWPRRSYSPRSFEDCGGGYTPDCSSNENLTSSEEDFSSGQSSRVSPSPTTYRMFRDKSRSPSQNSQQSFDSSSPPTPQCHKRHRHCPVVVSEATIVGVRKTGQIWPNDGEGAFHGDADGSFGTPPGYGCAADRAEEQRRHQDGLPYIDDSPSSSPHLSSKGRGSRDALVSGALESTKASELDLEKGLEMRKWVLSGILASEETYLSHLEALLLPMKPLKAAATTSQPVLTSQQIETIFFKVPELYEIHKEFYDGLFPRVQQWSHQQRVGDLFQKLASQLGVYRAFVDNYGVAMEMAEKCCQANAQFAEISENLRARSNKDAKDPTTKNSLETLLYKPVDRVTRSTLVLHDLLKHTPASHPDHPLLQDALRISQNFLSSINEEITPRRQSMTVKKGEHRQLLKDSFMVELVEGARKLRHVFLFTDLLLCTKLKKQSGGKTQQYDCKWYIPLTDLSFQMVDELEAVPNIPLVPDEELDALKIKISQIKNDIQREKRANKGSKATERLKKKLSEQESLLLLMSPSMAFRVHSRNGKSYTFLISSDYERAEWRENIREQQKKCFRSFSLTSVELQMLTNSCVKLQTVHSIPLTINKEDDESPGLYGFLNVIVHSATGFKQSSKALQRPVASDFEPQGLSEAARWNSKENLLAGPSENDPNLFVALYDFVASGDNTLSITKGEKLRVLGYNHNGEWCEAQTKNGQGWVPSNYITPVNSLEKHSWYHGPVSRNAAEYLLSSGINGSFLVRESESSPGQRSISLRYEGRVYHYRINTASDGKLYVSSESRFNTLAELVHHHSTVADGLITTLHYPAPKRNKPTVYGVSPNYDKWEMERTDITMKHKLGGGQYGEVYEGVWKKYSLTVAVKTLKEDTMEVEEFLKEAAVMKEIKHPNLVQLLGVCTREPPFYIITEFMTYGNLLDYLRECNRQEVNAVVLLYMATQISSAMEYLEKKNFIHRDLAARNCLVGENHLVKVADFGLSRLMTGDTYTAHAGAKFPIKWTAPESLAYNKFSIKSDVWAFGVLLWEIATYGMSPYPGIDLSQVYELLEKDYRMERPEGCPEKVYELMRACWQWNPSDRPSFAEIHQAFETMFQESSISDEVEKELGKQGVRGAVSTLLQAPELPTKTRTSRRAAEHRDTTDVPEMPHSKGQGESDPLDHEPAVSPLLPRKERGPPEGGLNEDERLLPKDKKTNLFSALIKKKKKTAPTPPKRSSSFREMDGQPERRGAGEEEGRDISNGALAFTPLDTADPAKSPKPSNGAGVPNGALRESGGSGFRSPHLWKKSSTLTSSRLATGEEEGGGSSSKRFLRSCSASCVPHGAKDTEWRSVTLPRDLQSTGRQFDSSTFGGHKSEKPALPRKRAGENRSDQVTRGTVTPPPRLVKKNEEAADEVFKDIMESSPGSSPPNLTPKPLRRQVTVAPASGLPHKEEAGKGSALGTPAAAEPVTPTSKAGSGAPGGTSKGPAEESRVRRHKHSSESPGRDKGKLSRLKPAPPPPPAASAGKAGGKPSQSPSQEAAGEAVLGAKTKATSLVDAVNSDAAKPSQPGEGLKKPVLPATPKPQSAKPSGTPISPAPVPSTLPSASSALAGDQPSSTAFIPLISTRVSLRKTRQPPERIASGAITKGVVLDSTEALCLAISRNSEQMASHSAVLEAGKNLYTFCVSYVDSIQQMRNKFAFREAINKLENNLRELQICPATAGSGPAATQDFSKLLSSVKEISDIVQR
Bcr-Abl (e14a2), sequence (P11274+P00519 fused): as above

Substance: BAF7: siRNA duplex, sense SEQ ID No. 1, antisense SEQ ID No. 23, specific for Bcr-Abl-e14a2 (sense CAGAGUUCAAAAGCCCUUCAG; antisense CUGAAGGGCUUUUGAACUCUGCU; listed as RNA, chemistry not given here)
- viability (32Dp210/e14a2 cells; four treatments): virtual loss of viability; also recorded: virtually complete loss of viability
- viability relative to electroporation control cells (EPC, 100%) (32Dp210/e14a2 cells; single treatment, MTT): approximately 59%
- viability relative to EPC (32Dp210/e14a2 cells; treated four times, MTT): ≤ 2.5%
- growth (K562 cells; K562, 48 hours following one single treatment, lipofectamin 2000): only a minimal growth reduction
- viability (K562 cells; K562, 48 hours following the third lipofection at intervals of 24 hours): 45%
- Bcr-Abl protein levels (p210Bcr-Abl (e14a2); four consecutive treatments at intervals of 24 h): reduced the amount of Bcr-Abl protein to the detection limit; also recorded: almost complete disappearance of Bcr-Abl protein
- Bcr-Abl protein levels (p210Bcr-Abl (e14a2); single siRNA treatment, Western blot): notable reduction; also recorded: significant reduction
- recovery of Bcr-Abl protein levels (p210Bcr-Abl (e14a2); 32Dp210Bcr-Abl (e14a2) cells, after one single treatment): quickly recovered to pre-treatment levels
- induction of apoptosis by 0.05 μM imatinib mesylate in siRNA-treated cells (M07p210/e14a2 cells): significant induction of apoptosis
- Bcr-Abl protein levels (Bcr-Abl (e14a2)): significant reduction
